Data set [1] concerns the target T1, MelBSt (melibiose permease of Salmonella enterica serovar Typhimurium) (Salmonella enterica, UniProt P30878).
T1 construct: gene melB; full length, C-terminal His10 tag (plasmid pK95 delta-AH/MelBSt/CHis10), expressed in E. coli DW2; modelled residues 2-454 or 2-456
The experiment in a line: ITC. Format: binding. Conditions: pH 8.5, 25 °C, Na+-free, 20 mM Tris-HCl, 100 mM choline chloride, 0.035% UDM.

Data set [2] deals with T2, MelBSt (melibiose permease of Salmonella enterica serovar Typhimurium) (Salmonella enterica, UniProt P30878, D55C).
T2 construct: gene melB
Briefly: biochemical. The source says: ITC on MelBSt (melibiose permease of Salmonella enterica serovar Typhimurium)

Data set [3] concerns the target Asp59 (UniProt position 59, WDAINDPIMGW). The experiment in a line: ITC. The following applies: cited from earlier work.

Where two headings read alike, the source gives them in different places.

In general, pKa refers to the pH at which an ionisable group is half protonated.

T2 sequence (P30878 whole entry D55C): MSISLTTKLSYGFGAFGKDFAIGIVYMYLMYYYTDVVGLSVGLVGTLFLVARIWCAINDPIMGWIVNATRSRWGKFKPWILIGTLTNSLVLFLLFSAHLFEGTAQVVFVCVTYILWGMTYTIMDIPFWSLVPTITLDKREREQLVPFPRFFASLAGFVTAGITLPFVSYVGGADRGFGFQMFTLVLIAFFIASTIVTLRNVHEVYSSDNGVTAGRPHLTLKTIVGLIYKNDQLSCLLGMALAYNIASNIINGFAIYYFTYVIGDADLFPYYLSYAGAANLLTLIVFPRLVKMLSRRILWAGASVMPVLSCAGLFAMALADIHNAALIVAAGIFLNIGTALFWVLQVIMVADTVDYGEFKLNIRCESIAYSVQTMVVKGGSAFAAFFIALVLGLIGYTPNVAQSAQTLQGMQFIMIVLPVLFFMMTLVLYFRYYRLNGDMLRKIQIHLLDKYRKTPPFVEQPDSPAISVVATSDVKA
T1 sequence (P30878 whole entry, the tested form may be a part): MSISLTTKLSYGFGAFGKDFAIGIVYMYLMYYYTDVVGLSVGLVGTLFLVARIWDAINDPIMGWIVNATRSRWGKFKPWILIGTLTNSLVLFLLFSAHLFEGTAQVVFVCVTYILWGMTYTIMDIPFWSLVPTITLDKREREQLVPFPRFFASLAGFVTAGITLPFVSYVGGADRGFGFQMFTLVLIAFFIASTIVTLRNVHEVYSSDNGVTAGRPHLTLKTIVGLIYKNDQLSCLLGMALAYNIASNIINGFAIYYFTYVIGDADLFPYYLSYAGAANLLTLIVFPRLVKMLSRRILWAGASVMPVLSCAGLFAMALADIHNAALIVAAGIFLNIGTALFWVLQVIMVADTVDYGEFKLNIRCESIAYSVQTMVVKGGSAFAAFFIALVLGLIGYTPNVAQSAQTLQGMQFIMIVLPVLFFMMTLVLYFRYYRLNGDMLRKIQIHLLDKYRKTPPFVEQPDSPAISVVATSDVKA

Turning to `OC[C@H]1O[C@H](OC[C@H]2OC(O)[C@H](O)[C@@H](O)[C@@H]2O)[C@H](O)[C@@H](O)[C@H]1O` (some centres unmarked) [melibiose], the Kd in data set [1] is 8.5 ± 0.21 mM; in data set [2] (read-out: Melibiose, pH 7.5, 25 °C, no Na+ or Li+, UDM), 5.82 ± 0.46 mM.
Regarding `O=[N+]([O-])c1ccc(O[C@H]2O[C@H](CO)[C@H](O)[C@H](O)[C@H]2O)cc1` [α-NPG, 4-nitrophenyl-α-D-galactopyranoside], the Kd in data set [2] was found to be 0.0151 ± 0.00186 mM.
As to “Melibiose permease MelB (MelBSt) (Salmonella enterica serovar Typhimurium)”, the pKa is 6.25 in data set [3] (absence of melibiose (sugar-free)) and “approximately 6.5” in data set [3] (presence of melibiose).

(Values after article doi:10.1101/2024.02.27.582382, “Distinct roles of the major binding residues in the cation-binding pocket of MelB” (bioRxiv, 2024).)
